Results: patent US20050037946A1, “Methods and compositions for treating cardiovascular disease using 1722, 10280, 59917, 85553, 10653, 9235, 21668, 17794, 2210, 6169, 10102, 21061, 17662, 1468, 12282, 6350, 9035, 1820, 23652, 7301, 8925, 8701, 3533, 9462, 9123, 12788, 17729, 65552, 1261, 21476, 33770, 9380, 2569654, 33556, 53656, …” (Millennium Pharmaceuticals, Inc., priority 2003, published 2005)

Key:
[1] = tested on: 554 mRNA; test: 554 mRNA in livers of mice treated with ciprofibrate (microarray); format: in vivo; conditions: livers of treated mice vs control liver samples, p=0.006
[2] = tested on: 8921 mRNA; test: 8921 mRNA in liver samples of mice treated with ciprofibrate (microarray); format: in vivo; conditions: liver samples of treated mice vs control liver samples, p=0.002
[3] = tested on: 19319 mRNA; test: 19319 mRNA in livers of mice administered ciprofibrate (TaqMan); format: in vivo
From the text: (§1) This example describes the TaqMan™ procedure. The Taqman™ procedure is a quantitative, reverse transcription PCR-based approach for detecting mRNA. The RT-PCR reaction exploits the 5′ nuclease activity of AmpliTaq Gold™ DNA Polymerase to cleave a TaqMan™ probe during PCR. Briefly, cDNA was generated from the samples of interest, e.g., heart, kidney, liver, skeletal muscle, and various vessels, and used as the starting material for PCR amplification. In addition to the 5′ and 3′ gene-specific primers, a gene-specific oligonucleotide probe (complementary to the region being amplified) was included in the reaction (i.e., the Taqman™ probe). […]
(§2) During the PCR reaction, cleavage of the probe separates the reporter dye and the quencher dye, resulting in increased fluorescence of the reporter. Accumulation of PCR products is detected directly by monitoring the increase in fluorescence of the reporter dye. When the probe is intact, the proximity of the reporter dye to the quencher dye results in suppression of the reporter fluorescence. […]

[4] = tested on: 2552 mRNA; test: 2552 mRNA in livers of mice (TaqMan); format: in vivo
From the text: as §1, §2

[5] = tested on: 112091; test: 112091 expression in livers of wild-type mice treated with ciprofibrate; format: in vivo
[6] = tested on: 54946 mRNA; test: 54946 mRNA in livers of mice, ciprofibrate (microarray or RT-PCR); format: in vivo; conditions: p=0.008
[7] = tested on: 9123 mRNA; test: 9123 mRNA in livers of mice treated with ciprofibrate (TaqMan); format: in vivo; conditions: livers of mice during treatment
From the text: as §1, §2

[8] = tested on: 2569654 mRNA; test: 2569654 mRNA in livers of mice treated with Ciprofibrate (TaqMan); format: in vivo
From the text: as §1, §2

[9] = tested on: 16408 mRNA; test: 16408 mRNA in livers of mice treated with ciprofibrate (microarray); format: in vivo
[10] = tested on: 7301 mRNA; test: 7301 mRNA in livers of mice treated with ciprofibrate (TaqMan); format: in vivo; conditions: livers of mice during treatment
From the text: as §1, §2

[11] = tested on: 9380 mRNA; test: 9380 mRNA in livers of mice treated with ciprofibrate (TaqMan); format: in vivo
From the text: as §1, §2

[12] = tested on: 33770 mRNA; test: 33770 mRNA in livers of mice, ciprofibrate (TaqMan); format: in vivo; conditions: p=0.02
From the text: as §1, §2

[13] = tested on: 42028; test: 42028 expression in livers of mice treated with ciprofibrate (microarray); format: in vivo
[14] = tested on: 43969; test: 43969 expression in livers of mice administered ciprofibrate (TaqMan); format: in vivo
From the text: as §1, §2

[15] = tested on: 53656 mRNA; test: 53656 mRNA in livers of Marmosets (TaqMan); format: in vivo
[16] = tested on: 17729 mRNA; test: 17729 mRNA in marmoset models (TaqMan); format: in vivo
[17] = tested on: 8701 mRNA; test: 8701 mRNA in livers of marmosets treated with lipid-lowering therapies (TaqMan); format: in vivo
[18] = tested on: 9380 mRNA; test: 9380 mRNA in livers of marmosets (TaqMan); format: in vivo
[19] = tested on: 10653 mRNA; test: 10653 mRNA in livers of marmosets treated with lipid-lowering therapies (TaqMan); format: in vivo
[20] = tested on: 21668 mRNA; test: 21668 mRNA in marmoset models treated with cholesterol lowering agents (TaqMan); format: in vivo
[21] = tested on: 2569654 mRNA; test: 2569654 mRNA in marmoset models (TaqMan); format: in vivo
From the text: (§3) This example describes the TaqMan™ procedure. The Taqman™ procedure is a quantitative, reverse transcription PCR-based approach for detecting mRNA. The RT-PCR reaction exploits the 5′ nuclease activity of AmpliTaq Gold™ DNA Polymerase to cleave a TaqMan™ probe during PCR. Briefly, cDNA was generated from the samples of interest, e.g., heart, kidney, liver, skeletal muscle, and various vessels, and used as the starting material for PCR amplification. In addition to the 5′ and 3′ gene-specific primers, a gene-specific oligonucleotide probe (complementary to the region being amplified) was included in the reaction (i.e., the Taqman™ probe). The TaqMan™ probe includes the oligonucleotide with a fluorescent reporter dye covalently linked to the 5′ end of the probe (such as FAM (6-carboxyfluorescein), TET (6-carboxy4,7,2′,7′-tetrachlorofluorescein), JOE (6-carboxy-4,5-dichloro-2,7-dimethoxyfluorescein), or VIC) and a quencher dye (TAMRA (6-carboxy-N,N,N′,N′-tetramethylrhodamine) at the 3′ end of the probe.
(§4) During the PCR reaction, cleavage of the probe separates the reporter dye and the quencher dye, resulting in increased fluorescence of the reporter. Accumulation of PCR products is detected directly by monitoring the increase in fluorescence of the reporter dye. When the probe is intact, the proximity of the reporter dye to the quencher dye results in suppression of the reporter fluorescence. During PCR, if the target of interest is present, the probe specifically anneals between the forward and reverse primer sites. The 5′-3′ nucleolytic activity of the AmpliTaq™ Gold DNA Polymerase cleaves the probe between the reporter and the quencher only if the probe hybridizes to the target. The probe fragments are then displaced from the target, and polymerization of the strand continues. The 3′ end of the probe is blocked to prevent extension of the probe during PCR. […] RNA was prepared using the trizol method and treated with DNase to remove contaminating genomic DNA. cDNA was synthesized using standard techniques.

[22] = tested on: 9325 mRNA; test: 9325 mRNA in livers of marmosets (TaqMan); format: in vivo
From the text: as §1, §2

[23] = tested on: 9462 mRNA; test: 9462 mRNA regulation by lipid lowering drugs (TaqMan)
From the text: as §1, §2

[24] = tested on: 2552 mRNA; test: 2552 mRNA in marmoset livers (TaqMan); format: in vivo
[25] = tested on: 8921 mRNA; test: 8921 mRNA expression in marmosets; format: in vivo
[26] = tested on: 19319 mRNA; test: 19319 mRNA in livers of marmosets (TaqMan); format: in vivo
[27] = tested on: 3533 mRNA; test: 3533 mRNA regulation by lipid lowering drugs (TaqMan)
From the text: as §3, §4

[28] = tested on: 8925 mRNA; test: 8925 mRNA in livers of marmosets treated with lipid-lowering therapies (TaqMan); format: in vivo
[29] = tested on: 10102 mRNA; test: 10102 mRNA regulation by lipid lowering drugs (TaqMan)

Compound: CC(C)(Oc1ccc(C2CC2(Cl)Cl)cc1)C(=O)O (centres unmarked) [ciprofibrate]
- 554 mRNA downregulated [1]: 0.68 fold
- 8921 mRNA downregulated [2]: 0.59 fold
- 19319 mRNA expression [3]: upregulated
- 2552 mRNA expression [4]: downregulate
- 112091 expression [5]: down-regulated
- 54946 mRNA upregulated [6]: 2.0 fold
- 9123 mRNA expression [7]: upregulated
- 2569654 mRNA expression [8]: significantly downregulated
- 16408 mRNA expression [9]: down-regulated
- 7301 mRNA expression [10]: down-regulated
- 9380 mRNA expression [11]: downregulated
- 33770 mRNA downregulated [12]: 0.76 fold
- 42028 expression [13]: down-regulated
- 43969 expression [14]: downregulated

Compound: cholestyramine
- 53656 mRNA upregulated [15]: 1.8 fold
- 17729 mRNA expression [16]: upregulated
- 8701 mRNA expression [17]: upregulated
- 9380 mRNA expression [18]: upregulated
- 10653 mRNA expression [19]: downregualted
- 21668 mRNA expression [20]: marked increase
- 2569654 mRNA expression [21]: upregulated
- 9325 mRNA upregulated [22]: 1.4 fold
- 9462 mRNA expression [23]: upregulated
- 2552 mRNA expression [24]: upregulated
- increase in 8921 mRNA expression [25]: 1.5 fold
- 19319 mRNA expression [26]: upregulated
- 3533 mRNA expression [27]: significantly downregulated
- 8925 mRNA expression [28]: upregulated
- 10102 mRNA expression [29]: significantly upregulated
